Source: PubChem BioAssay (NCI)
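A five-concentration, 48-hour dose response in 96-well plates underlies each endpoint, interpolated linearly between surrounding concentrations. GI50: concentration for 50% inhibition of growth. TGI marks complete inhibition of growth.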

How the values were obtained:
Experiment in all cases: NCI tumour cell line growth inhibition, 48 h
SK-MEL-28 melanoma = tested on: SK-MEL-28 melanoma
MCF7 breast = tested on: MCF7 breast
CCRF-CEM leukemia = tested on: CCRF-CEM leukemia
HCT-116 colon = tested on: HCT-116 colon
SK-MEL-2 melanoma = tested on: SK-MEL-2 melanoma
RXF 393 renal = tested on: RXF 393 renal
SK-MEL-5 melanoma = tested on: SK-MEL-5 melanoma
UO-31 renal = tested on: UO-31 renal
M14 melanoma = tested on: M14 melanoma
OVCAR-8 ovarian = tested on: OVCAR-8 ovarian
HL-60(TB) leukemia = tested on: HL-60(TB) leukemia
786-0 renal = tested on: 786-0 renal
K-562 leukemia = tested on: K-562 leukemia
SF-539 CNS = tested on: SF-539 CNS
ACHN renal = tested on: ACHN renal
A549 NSCLC = tested on: A549 NSCLC
T-47D breast = tested on: T-47D breast
NCI-H226 lung = tested on: NCI-H226 lung
HT29 colon = tested on: HT29 colon
IGROV1 ovarian = tested on: IGROV1 ovarian
SF-268 CNS = tested on: SF-268 CNS
HOP-92 NSCLC = tested on: HOP-92 NSCLC
KM12 colon = tested on: KM12 colon
SW-620 colon = tested on: SW-620 colon
NCI/ADR-RES ovarian = tested on: NCI/ADR-RES ovarian
U251 CNS = tested on: U251 CNS
MALME-3M melanoma = tested on: MALME-3M melanoma
BT-549 breast = tested on: BT-549 breast
DU-145 prostate = tested on: DU-145 prostate
SN12C renal = tested on: SN12C renal
HS 578T breast = tested on: HS 578T breast
MDA-MB-435 = tested on: MDA-MB-435
HCC-2998 colon = tested on: HCC-2998 colon
TK-10 renal = tested on: TK-10 renal
A498 renal = tested on: A498 renal
NCI-H522 lung = tested on: NCI-H522 lung
SNB-75 CNS = tested on: SNB-75 CNS
UACC-62 melanoma = tested on: UACC-62 melanoma
SR leukemia = tested on: SR leukemia
OVCAR-4 ovarian = tested on: OVCAR-4 ovarian
CAKI-1 renal = tested on: CAKI-1 renal
COLO 205 colon = tested on: COLO 205 colon
LOX IMVI melanoma = tested on: LOX IMVI melanoma
NCI-H460 lung = tested on: NCI-H460 lung
NCI-H23 lung = tested on: NCI-H23 lung
HOP-62 NSCLC = tested on: HOP-62 NSCLC
SNB-19 CNS = tested on: SNB-19 CNS
RPMI-8226 leukemia = tested on: RPMI-8226 leukemia
MDA-MB-231 breast = tested on: MDA-MB-231 breast
PC-3 prostate = tested on: PC-3 prostate
MOLT-4 leukemia = tested on: MOLT-4 leukemia
EKVX NSCLC = tested on: EKVX NSCLC
SK-OV-3 ovarian = tested on: SK-OV-3 ovarian
HCT-15 colon = tested on: HCT-15 colon
OVCAR-3 ovarian = tested on: OVCAR-3 ovarian
UACC-257 melanoma = tested on: UACC-257 melanoma
OVCAR-5 ovarian = tested on: OVCAR-5 ovarian
SF-295 CNS = tested on: SF-295 CNS

SMILES: c1ccc2cc(C[n+]3ccn(CCCCCCCCCCCCn4cc[n+](Cc5ccc6ccccc6c5)c4)c3)ccc2c1
- GI50 (SK-MEL-28 melanoma): 779 nM
- TGI (SK-MEL-28 melanoma): 2860 nM
- GI50 (MCF7 breast): 512 nM
- TGI (MCF7 breast): 1170 nM
- GI50 (CCRF-CEM leukemia): 732 nM
- TGI (CCRF-CEM leukemia): 2400 nM
- GI50 (HCT-116 colon): 848 nM
- TGI (HCT-116 colon): 3210 nM
- GI50 (SK-MEL-2 melanoma): 573 nM
- TGI (SK-MEL-2 melanoma): 1270 nM
- GI50 (RXF 393 renal): 546 nM
- TGI (RXF 393 renal): 1670 nM
- GI50 (SK-MEL-5 melanoma): 502 nM
- TGI (SK-MEL-5 melanoma): 1040 nM
- GI50 (UO-31 renal): 2660 nM
- TGI (UO-31 renal): 8740 nM
- GI50 (M14 melanoma): 835 nM
- TGI (M14 melanoma): 3500 nM
- GI50 (OVCAR-8 ovarian): 783 nM
- TGI (OVCAR-8 ovarian): 2890 nM
- GI50 (HL-60(TB) leukemia): 545 nM
- TGI (HL-60(TB) leukemia): 1080 nM
- GI50 (786-0 renal): 1730 nM
- TGI (786-0 renal): 6930 nM
- GI50 (K-562 leukemia): 429 nM
- TGI (K-562 leukemia): 1190 nM
- GI50 (SF-539 CNS): 807 nM
- TGI (SF-539 CNS): 2910 nM
- GI50 (ACHN renal): 1330 nM
- TGI (ACHN renal): 7710 nM
- GI50 (A549 NSCLC): 744 nM
- TGI (A549 NSCLC): 3570 nM
- GI50 (T-47D breast): 554 nM
- TGI (T-47D breast): 1780 nM
- GI50 (NCI-H226 lung): 984 nM
- TGI (NCI-H226 lung): 5520 nM
- GI50 (HT29 colon): 693 nM
- TGI (HT29 colon): 1870 nM
- GI50 (IGROV1 ovarian): 521 nM
- TGI (IGROV1 ovarian): 1160 nM
- GI50 (SF-268 CNS): 746 nM
- TGI (SF-268 CNS): 3010 nM
- GI50 (HOP-92 NSCLC): 500 nM
- TGI (HOP-92 NSCLC): 1400 nM
- GI50 (KM12 colon): 553 nM
- TGI (KM12 colon): 1410 nM
- GI50 (SW-620 colon): 815 nM
- TGI (SW-620 colon): 3300 nM
- GI50 (NCI/ADR-RES ovarian): 8090 nM
- TGI (NCI/ADR-RES ovarian): 25000 nM
- GI50 (U251 CNS): 521 nM
- TGI (U251 CNS): 2530 nM
- GI50 (MALME-3M melanoma): 469 nM
- TGI (MALME-3M melanoma): 1250 nM
- GI50 (BT-549 breast): 467 nM
- TGI (BT-549 breast): 1170 nM
- GI50 (DU-145 prostate): 1030 nM
- TGI (DU-145 prostate): 3800 nM
- GI50 (SN12C renal): 652 nM
- TGI (SN12C renal): 2090 nM
- GI50 (HS 578T breast): 693 nM
- TGI (HS 578T breast): 2480 nM
- GI50 (MDA-MB-435): 682 nM
- TGI (MDA-MB-435): 2530 nM
- GI50 (HCC-2998 colon): 1090 nM
- TGI (HCC-2998 colon): 4740 nM
- GI50 (TK-10 renal): 992 nM
- TGI (TK-10 renal): 4450 nM
- GI50 (A498 renal): 515 nM
- TGI (A498 renal): 1620 nM
- GI50 (NCI-H522 lung): 470 nM
- TGI (NCI-H522 lung): 1250 nM
- GI50 (SNB-75 CNS): 381 nM
- TGI (SNB-75 CNS): 1340 nM
- GI50 (UACC-62 melanoma): 725 nM
- TGI (UACC-62 melanoma): 2430 nM
- GI50 (SR leukemia): 679 nM
- TGI (SR leukemia): 1670 nM
- GI50 (OVCAR-4 ovarian): 694 nM
- TGI (OVCAR-4 ovarian): 2530 nM
- GI50 (CAKI-1 renal): 3550 nM
- TGI (CAKI-1 renal): 25000 nM
- GI50 (COLO 205 colon): 441 nM
- TGI (COLO 205 colon): 833 nM
- GI50 (LOX IMVI melanoma): 483 nM
- TGI (LOX IMVI melanoma): 941 nM
- GI50 (NCI-H460 lung): 814 nM
- TGI (NCI-H460 lung): 2960 nM
- GI50 (NCI-H23 lung): 722 nM
- TGI (NCI-H23 lung): 2400 nM
- GI50 (HOP-62 NSCLC): 815 nM
- TGI (HOP-62 NSCLC): 2650 nM
- GI50 (SNB-19 CNS): 773 nM
- TGI (SNB-19 CNS): 3490 nM
- GI50 (RPMI-8226 leukemia): 898 nM
- TGI (RPMI-8226 leukemia): 4150 nM
- GI50 (MDA-MB-231 breast): 866 nM
- TGI (MDA-MB-231 breast): 2880 nM
- GI50 (PC-3 prostate): 794 nM
- TGI (PC-3 prostate): 2810 nM
- GI50 (MOLT-4 leukemia): 508 nM
- TGI (MOLT-4 leukemia): 1020 nM
- GI50 (EKVX NSCLC): 894 nM
- TGI (EKVX NSCLC): 4200 nM
- GI50 (SK-OV-3 ovarian): 661 nM
- TGI (SK-OV-3 ovarian): 1800 nM
- GI50 (HCT-15 colon): 1480 nM
- TGI (HCT-15 colon): 9150 nM
- GI50 (OVCAR-3 ovarian): 763 nM
- TGI (OVCAR-3 ovarian): 2400 nM
- GI50 (UACC-257 melanoma): 589 nM
- TGI (UACC-257 melanoma): 1530 nM
- GI50 (OVCAR-5 ovarian): 863 nM
- TGI (OVCAR-5 ovarian): 3680 nM
- GI50 (SF-295 CNS): 654 nM
- TGI (SF-295 CNS): 2130 nM
